Measured values taken from patent US20060014987A1, “Synthesis of beta-elemene, intermediates thereto, analogues and uses thereof” (priority 2003, published 2006).
Converted amounts (≈) assume the structure as drawn.

How the values were obtained:
human brain tumor, A-127 = experiment: MTT assay, anti tumor activities of derivatives; format: cell-based
[1] = test system: G422 mice glioma (intracranial inoculation); experiment: Intracranial inoculation, survival; format: in vivo; conditions: positive control, i.p. 5 mg/kg once a day for 7 days
Protocol: Each experiment was repeated three times.
Intracranial inoculation: Scientists took aseptically G422 tumor from well-growing mice to prepare 2×10^7 cells/ml suspension by even protoplasm method. Mice were inoculated intracranially with 0.05 ml suspension. Treatment started the day after the inoculation. Animal survival time was recorded for 30 days.

[2] = test system: SHG-44 Human Brain Glioma (Subcutaneous Inoculation); conditions: positive control, 30 mg/kg once a day for 7 days
[3] = test system: MDR1 mRNA in CEM.ADM cells; experiment: MDR1 mRNA by Rt-PCR
[4] = 3H labeled, injected intravenously or taken orally; cited from earlier work
liver cancer cell SMMC = conditions: Elemene at 20 ug/ml; cited from earlier work
[5] = test system: Human hepatic cancer BEL-7402 cell line; conditions: after 6 weeks of induction with Elemene at 48.9 ug/ml; cited from earlier work
[6] = test system: sensitive parental cell line CEM; experiment: IC50 and drug accumulation in the sensitive line
glioblastoma = conditions: after treatment with this drug; cited from earlier work
MDR cell line CEM/ADM = experiment: MDR reversal, MTT method
tumor cells = conditions: in vitro; cited from earlier work
[7] = test system: recurrent anaplastic astrocytoma; conditions: cited from earlier work
CEM/ADM cells = experiment: Intracellular drug accumulation; conditions: verapamil at 7.5 ug/ml
SKOV3/CIS cells = conditions: cited from earlier work

Q: Which results are given for `C=C[C@]1(C)CC[C@@H](C(C)(O)CO)C[C@H]1C(=C)C` (single isomer, unassigned) [LR1, (R or S)-2-((1R,3S,4S)-3-Isopropenyl-4-methyl-4-vinyl-cyclohexyl)-propane-1,2-diol]?
A: IC50 (human brain tumor, A-127; 24 Hour): 176 µg/mL (≈ 739 µM); IC50 (human brain tumor, A-127; 48 Hour): 163 µg/mL (≈ 685 µM); IC50 (human brain tumor, A-127; 72 Hour): 133 µg/mL (≈ 558 µM)

Q: With `COc1cc([C@@H]2c3cc4c(cc3[C@@H](O[C@@H]3O[C@@H]5CO[C@@H](c6cccs6)O[C@H]5[C@H](O)[C@H]3O)[C@H]3COC(=O)[C@H]23)OCO4)cc(OC)c1O` [VM-26] as the compound, how does the “LPR Experiment 1” value [1] read?
A: 183.24%

Q: What about the “LPR Experiment 2” value [1] of the same compound?
A: 168.75%

Q: What about the “LPR Experiment 3” value [1] of the same compound?
A: 171.2%

Q: What about the “Mean Survival Time (Days) Experiment 1” value [1] of the same compound?
A: 24.5 ± 6.0 days

Q: And the “Mean Survival Time (Days) Experiment 2” value [1]?
A: 25.8 ± 5.1 days

Q: What about the “Mean Survival Time (Days) Experiment 3” value [1] of the same compound?
A: 25.9 ± 4.7 days

Q: And the “animals alive at the end / at the beginning of the treatment (n/m)” value [1]?
A: VM-26 (4/10)

Q: Which “TIR Experiment 1” value [2] does the source give for `O=P1(N(CCCl)CCCl)NCCCO1` (stereo not shown) [CTX, cyclo-phosphate acylamine] here?
A: 83.16%

Q: And the “TIR Experiment 2” value [2]?
A: 88.54%

Q: What about the “Tumor Weight (g) Experiment 1” value [2] of the same compound?
A: 0.33 ± 0.10 g

Q: And the “Tumor Weight (g) Experiment 2” value [2]?
A: 0.22 ± 0.04 g

Q: And the “Tumor Weight (g) Experiment 3” value [2]?
A: 0.23 ± 0.05 g

Q: For `C=C[C@]1(C)CC[C@@H](C(=C)C)C[C@H]1C(=C)C` [beta-elemene, (−)-beta-elemene], which “quantity of MDR1 mRNA” value [3] is on record?
A: no quantity change

Q: And the “passage of the blood brain barrier (BBB)” value [4]?
A: Radioactivity was detected in animals' brain

Q: What about the “G0/G1 to S phase transition” value (liver cancer cell SMMC) of the same compound?
A: blocked G0/G1 to S phase transition

Q: And the “expression of MDR1 mRNA or P-glycoprotein (P-gp)” value [5]?
A: did not express MDR1 mRNA or P-glycoprotein (P-gp)

Q: And the “effect on IC50 values and drug accumulations” value [6]?
A: no effect

Q: And the “longest survival time of a glioblastoma patient” value (glioblastoma)?
A: 62 months

Q: What about the “dose modifying factor (DMF) for DAU” value (MDR cell line CEM/ADM; beta-elemene at 3 ug/ml) of the same compound?
A: 1.79

Q: And the “dose modifying factor (DMF) for VCR” value (MDR cell line CEM/ADM; beta-elemene at 3 ug/ml)?
A: 1.60

Q: What about the “dose modifying factor (DMF) for ADM” value (MDR cell line CEM/ADM; beta-elemene at 3 ug/ml, IC50 without/with MDR modulator) of the same compound?
A: 1.84

Q: And the “IC50 for tumor cells” value (tumor cells)?
A: 20 to 50 µg/mL

Q: For `Cn1nnc2c(C(N)=O)ncn2c1=O` [TEMODAR, temozolomide], which “CR+PR rate” value ([7]; brain tumor patients) is on record?
A: 20%

Q: What about the complete responses ([7]; human, in vivo) of the same compound?
A: 9%

Q: What about the “overall tumor response rate” value ([7]; human, in vivo) of the same compound?
A: 22%

Q: What about the partial responses ([7]; human, in vivo) of the same compound?
A: 13%

Q: What does the source list for `COc1ccc(CCN(C)CCCC(C#N)(c2ccc(OC)c(OC)c2)C(C)C)cc1OC` (stereo not shown) [verapamil]?
A: intracellular accumulations of ADM, DAU and VCR versus negative controls (CEM/ADM cells): about 2 times; enhancement of the sensitivity of SKOV3/CIS to doxorubicin (SKOV3/CIS cells): 260 fold; DMF of ADM (MDR cell line CEM/ADM; verapamil at 7.5 ug/ml): 2.02; DMF of DAU (MDR cell line CEM/ADM; verapamil at 7.5 ug/ml): 2.13; DMF of VCR (MDR cell line CEM/ADM; verapamil at 7.5 ug/ml): 1.95
